Results on one molecule are retold here after US20130065818A1, “Arylamide Compounds And Compositions And Uses Thereof” (POLYMEDIX, priority 2006, published 2013).

What all share (experiment): MIC of clinical ocular isolates (Example 1)
Common to all, as to format: cell-based

The subject of one test is CS S. epidermidis (CSSE). The conditions noted are these: Staphylococcus epidermidis; CSSE clinical ocular isolates (n=26).
In another test the test system is H. influenzae (HI). The conditions noted are these: Haemophilus influenzae; HI clinical ocular isolates (n=26).
The next test deals with St. pneumoniae (SP). The conditions noted are these: Streptococcus pneumoniae; SP clinical ocular isolates (n=27).
For another test, the system named is P. aeruginosa (PA). The conditions noted are these: Pseudomonas aeruginosa; PA clinical ocular isolates (n=26).
A further test relates to CR S. epidermidis (CRSE). The settings on record: Staphylococcus epidermidis; CRSE clinical ocular isolates (n=26).
A further test concerns Serratia marcescens (SM). The conditions noted are these: SM clinical ocular isolates (n=27).
A further test deals with St. viridans group (SV). The settings on record: Streptococcus viridans.
Test [1] deals with Ciprofloxacin Susceptible (CS) S. aureus (CSSA). The conditions noted are these: Staphylococcus aureus; CSSA clinical ocular isolates (n=27).
Test [2] deals with Ciprofloxacin Resistant (CR) S. aureus (CRSA). The conditions noted are these: Staphylococcus aureus; CRSA clinical ocular isolates (n=28).

Consider `N=C(N)NCCCCC(=O)Nc1cc(C(F)(F)F)cc(NC(=O)c2cc(C(=O)Nc3cc(C(F)(F)F)cc(NC(=O)CCCCNC(=N)N)c3SCCN)ncn2)c1SCCN` [Oligomer 2], for which the MIC50 in the test with CS S. epidermidis (CSSE) turned out to be 0.03 µg/mL; in the test with H. influenzae (HI), 8 µg/mL; in the test on St. pneumoniae (SP), 1 µg/mL; in the test on P. aeruginosa (PA), 4 µg/mL; in the test with CR S. epidermidis (CRSE), 0.03 µg/mL; with Serratia marcescens (SM) it was 16 µg/mL. Besides, the MIC50 in the test on St. viridans group (SV) turned out to be 4 µg/mL; in test [1], 0.125 µg/mL; in test [2], 0.25 µg/mL. The MIC90 in the test with CS S. epidermidis (CSSE) was 0.03 µg/mL; in the test with H. influenzae (HI), 16 µg/mL; in the test on St. pneumoniae (SP) it was 2 µg/mL; in the test on P. aeruginosa (PA) it was 8 µg/mL; with CR S. epidermidis (CRSE), 0.03 µg/mL; with Serratia marcescens (SM), 32 µg/mL. Also, the MIC90 came out at 32 µg/mL in the test on St. viridans group (SV), 0.25 µg/mL in test [1] and 0.25 µg/mL in test [2].
